# Where “and” joins values, the source holds several entries; their conditions need not be identical. Equal values may be shown once.
# How the values were obtained:
# cultured lymphocytes [1] = assay: MTT survival assay of PHA-activated lymphocyte cultures, treated versus control; assay type: cell-based, human
# Description: In the second set of experiments (53 subjects) after an initial 48 hours incubation (as above) four separate cultures were set up. Control cultures were left without any treatment, one set of cultures was treated with 100 ng/ml rapamycin, the third set was treated with 1 μM doxorubicin while the fourth set was treated with 120 μM H2O2. Doxorubicin induces DNA damage, leading to arrest at G2/M, rather than G1/S. H2O2 treatment produces oxidative stress, leading to a reversible and temporary cell cycle arrest at G1/S.
# After 20 hours of incubation a 4 hour long MTT survival assay (Chemicon International Ltd) was set up. Results were read using a microplate reader (570 filter; 630 reference filter). The ratio between cell numbers in treated cultures versus controls was expressed as percent.
# cultured lymphocytes [2] = assay: Relative lengthening of the G1 phase (BrdU incorporation, FACS) in PHA-activated lymphocyte cultures treated with rapamycin; assay type: cell-based, human; settings: 100 ng/ml rapamycin; for dG1: relative lengthening of the G1 phase of the cell cycle under Rapamycin effect: 24 h; for Mean (dG1): group mean
# Description: A first set of experiments was carried out on 49 subjects (Table 1A), whilst a second set of experiments was carried out on 55 subjects (Table 1B). In the first set of experiments (49 subjects) two parallel lymphocyte cultures were set up from every individual in RPMI medium supplemented with 10% FCS at a concentration of 1×10^6 cells per 1 ml of culture media. Phytohaemaglutinin (PHA) was added to the cultures at a final concentration of 22 μg/ml to activate the lymphocytes. Cultures were incubated for 48 hours at 37° C. in a humidified atmosphere containing 5% CO2. After 48 hours incubation one culture was treated with 100 ng/ml rapamycin, while the other untreated culture was kept as a control. After a further 23 hours incubation BrdU was added in a concentration of 10 μg/ml to all cultures. After another hour cultures were ‘collected’ and fixed in 70% ice-cold ethanol. BrdU incorporation was assessed using immunohistochemistry followed by FACS analysis. The proportion of cells in various phases of the cell cycle was determined and data transformation performed to obtain the relative lengthening of the G1 phase (FIG. 1).
# The calculations (relative lengthening of the G1 phase of the cell cycle in treated cultures relative to control cultures) were based on the assumptions that cells were in the exponential phase of proliferation and that the growth fraction in the cultures (ratio of dividing cells versus quiescent cells) was 1.0 (5). It was also assumed that rapamycin only altered the length of the G1 phase (19). Based on these assumptions the relative lengthening of the G1 phase was calculated using the formula: RL=100f-100 (expressed in percent). The ratio of the G1 time in treated versus control cultures: f=TG1tr/TG1c=[1n2−1n(2−G1tr)][1n(2−G1c)]/[1n(2−G1tr)][1n2−1n(2−G1c)] (5)
smiles,measurement,setting,value
"COc1cccc2c1C(=O)c1c(O)c3c(c(O)c1C2=O)C[C@@](O)(C(=O)CO)C[C@@H]3O[C@H]1C[C@H](N)[C@H](O)[C@H](C)O1 [Doxorubicin, doxorubicin]",Cell numbers after treatment (treated versus control cultures),"cultured lymphocytes [1]; 1 μM doxorubicin, 24 h, comparison between patient groups",did not result in significant differences between patient groups
OO [H2O2],Cell numbers after treatment (treated versus control cultures),"cultured lymphocytes [1]; 120 μM H2O2, 24 h, AD, preAD and possAD patients versus control subjects",significantly higher cell numbers than control subjects
CO[C@H]1C[C@@H]2CC[C@@H](C)[C@@](O)(O2)C(=O)C(=O)N2CCCC[C@H]2C(=O)O[C@H]([C@H](C)C[C@@H]2CC[C@@H](O)[C@H](OC)C2)CC(=O)[C@H](C)/C=C(\C)[C@@H](O)[C@@H](OC)C(=O)[C@H](C)C[C@H](C)/C=C/C=C/C=C/1C [rapamycin],dG1: relative lengthening of the G1 phase of the cell cycle under Rapamycin effect,"cultured lymphocytes [2]; lymphocytes of individual patients, diagnosis AD (probable AD, NINCDS)",44.03% and 97.07% and 82.67% and 62.12% and 73.01% and 47.91% and 53.63% and 0% and 27%
same,dG1: relative lengthening of the G1 phase of the cell cycle under Rapamycin effect,"cultured lymphocytes [2]; lymphocytes of individual patients, diagnosis ADM",64.28% and 39.2% and 95.23% and 46.31% and 59.49% and 51.81% and 51.62%
same,dG1: relative lengthening of the G1 phase of the cell cycle under Rapamycin effect,"cultured lymphocytes [2]; lymphocytes of individual patients, diagnosis DNOS",31.64% and 69.07% and 97.27%
same,dG1: relative lengthening of the G1 phase of the cell cycle under Rapamycin effect,"cultured lymphocytes [2]; lymphocytes of individual patients, diagnosis possAD",56.77% and 60.1% and 98.1%
same,dG1: relative lengthening of the G1 phase of the cell cycle under Rapamycin effect,"cultured lymphocytes [2]; lymphocytes of individual subjects, diagnosis Control",51.69% and 64.1% and 40.07% and 114.1% and 119.8% and 50.04% and 177.8% and 62.81% and 54.56% and 162.7% and 97.33% and 46.02% and 110.8% and 140.6%
same,dG1: relative lengthening of the G1 phase of the cell cycle under Rapamycin effect,"cultured lymphocytes [2]; lymphocytes of individual subjects, diagnosis preAD",0% (3×) and 26.1% and 36.18% and 54.46% and 39.2% and 72.58% and 44.49% and 31.37% and 25.47% and 35.02% and 42.1%
same,Mean (dG1),"cultured lymphocytes [2]; AD, n=9",54.1602%
same,Mean (dG1),"cultured lymphocytes [2]; ADM, n=7",58.2765%
same,Mean (dG1),"cultured lymphocytes [2]; CONTROL, n=14",92.3135%
same,Mean (dG1),"cultured lymphocytes [2]; DNOS, n=3",65.9933%
same,Mean (dG1),"cultured lymphocytes [2]; POSSAD, n=3",71.6584%
same,Mean (dG1),"cultured lymphocytes [2]; PREAD, n=13",31.3039%
same,Mean dG1 by ApoE4,"cultured lymphocytes [2]; subjects with 0 ApoE4 alleles, n=28",61.1186%
same,Mean dG1 by ApoE4,"cultured lymphocytes [2]; subjects with 1 ApoE4 allele, n=19",63.0025%
same,Mean dG1 by ApoE4,"cultured lymphocytes [2]; subjects with 2 ApoE4 alleles, n=2",49.6519%

# Reference: patent publication US8377640B2, “Diagnostic screens for Alzheimer's disease” (ISIS Innovation Ltd., priority 2001, dated 2013)
